In the assay the target is T1, HcdB (Pseudomonas mandelii, UniProt A0A385IUB9).
T1 sequence (A0A385IUB9 1-186): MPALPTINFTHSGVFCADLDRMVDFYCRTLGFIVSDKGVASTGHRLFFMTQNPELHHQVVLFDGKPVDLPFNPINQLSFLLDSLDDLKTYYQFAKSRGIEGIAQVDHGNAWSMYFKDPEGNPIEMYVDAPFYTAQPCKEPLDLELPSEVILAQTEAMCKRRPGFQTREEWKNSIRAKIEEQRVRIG
The assay can be described thus: whole-cell bioconversion, UV-VIS of yellow meta-cleavage product; cells without hcdB inactive. Type of assay: cell-based. The following applies: […] potassium phosphate pH […] °C, […] substrate.

In the case of `Oc1ccccc1O` [pyrocatechol], the “whole-cell bioconversion, UV-VIS of yellow meta-cleavage product; cells without” value is “HcdB is capable oxidizing pyrocatechol, 3-methylcatechol, 3-methoxycatechol, 4-methylcatechol”.

The values are drawn from article PMC6222606, “Biodegradation of 7-Hydroxycoumarin in Pseudomonas mandelii 7HK4 via ipso-Hydroxylation of 3-(2,4-Dihydroxyphenyl)-propionic Acid” (Molecules : A Journal of Synthetic Chemistry and Natural …, 2018).
